This passage reports IC50 results from patent US20230279020A9, “CARM1 INHIBITORS AND USES THEREOF” (Epizyme, Inc., priority 2013, published 2023).

Human CARM1 (PRMT4), sequence (Q86X55 other isoform, or with tags, fused parts or gaps isoform Q86X55-1): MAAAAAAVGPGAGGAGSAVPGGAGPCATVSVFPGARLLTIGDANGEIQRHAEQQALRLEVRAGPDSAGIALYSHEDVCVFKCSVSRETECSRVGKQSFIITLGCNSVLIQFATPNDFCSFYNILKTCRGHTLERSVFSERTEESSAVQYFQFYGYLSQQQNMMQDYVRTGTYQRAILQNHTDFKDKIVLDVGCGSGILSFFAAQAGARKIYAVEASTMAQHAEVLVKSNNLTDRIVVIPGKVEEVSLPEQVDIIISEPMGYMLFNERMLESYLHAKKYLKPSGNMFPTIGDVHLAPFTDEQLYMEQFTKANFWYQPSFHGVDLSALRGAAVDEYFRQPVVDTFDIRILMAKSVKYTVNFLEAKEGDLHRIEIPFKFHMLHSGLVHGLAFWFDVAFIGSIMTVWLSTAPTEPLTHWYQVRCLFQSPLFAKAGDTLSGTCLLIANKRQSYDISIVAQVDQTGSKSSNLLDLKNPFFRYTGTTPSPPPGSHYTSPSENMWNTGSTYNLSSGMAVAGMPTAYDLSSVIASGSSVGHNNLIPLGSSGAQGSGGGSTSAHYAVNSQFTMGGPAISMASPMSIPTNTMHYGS

For this assay, the target named is Human CARM1 (PRMT4) (Homo sapiens (Human), UniProt Q86X55). Briefly: CARM1 enzyme assay on peptide substrate (3H-SAM Flashplate). The conditions noted are these: Biochemical potencies, classification codes; read-out: Biochem IC50. The text has this:
S-adenosylmethionine (SAM), S-adenosylhomocysteine (SAH), bicine, Tween20, dimethylsulfoxide (DMSO), bovine skin gelatin (BSG), sodium butyrate and Tris(2-carboxyethyl)phosphine hydrochloride solution (TCEP) were purchased from Sigma-Aldrich at the highest level of purity possible. ^3H-SAM was purchase from American Radiolabeled Chemicals with a specific activity of 80 Ci/mmol. 384-well streptavidin Flashplates were purchased from PerkinElmer.
Peptide representative of human histone H3 residues 16-30 was synthesized with an N-terminal linker-affinity tag motif and a C-terminal amide cap by 21st Century Biochemicals. […] The sequence was Biot-Ahx-[…]-amide and contained a monomethylated arginine at position 26 (SEQ ID NO.:1).
The gene sequence encoding isoform1 containing a deletion of amino acids 539-561 was amplified subsequently and subcloned into pFastBacMam (Viva Biotech).
Recombinant baculovirus were generated according to Bac-to-Bac kit instructions (Life Technologies). Protein over-expression was accomplished by infecting exponentially growing HEK 293F cell culture at 1.3×10^6cell/ml with virus (MOI=10) in the presence of 8 mM sodium butyrate. Infections were carried out at 37° C. for 48 hours, harvested by centrifugation, and stored at −80° C. for purification.
Expressed full-length human Flag- and His-tagged CARM1 protein was purified from cell paste by anti-flag M2 affinity chromatography with resin equilibrated with buffer containing 20 mM Tris, 150 mM NaCl, 5% glycerol, pH 7.8. Column was washed with 500 mM NaCl in buffer A and Flag-CARM1-His was eluted with 200 ug/ml FLAG peptide in buffer A. Pooled fractions were dialyzed in 20 mM Tris, 150 mM NaCl, 5% glycerol and 1 mM DTT, pH 7.8.
The assays were all performed in a buffer consisting of 20 mM Bicine (pH=7.6), 1 mM TCEP, 0.005% BSG, and 0.002% Tween 20, prepared on the day of use. Compounds in 100% DMSO (1 ul) were spotted into a polypropylene 384-well V-bottom plates (Greiner) using a Platemate Plus outfitted with a 384-channel head (Thermo Scientific). DMSO (1 ul) was added to Columns 11, 12, 23, 24, rows A-H for the maximum signal control and 1 ul of SAH, a known product and inhibitor of CARM1, was added to columns 11, 12, 23, 24, rows I-P for the minimum signal control. A cocktail (40 ul) containing the CARM1 enzyme was added by Multidrop Combi (Thermo-Fisher). The compounds were allowed to incubate with CARM1 for 30 min at room temperature, then a cocktail (10 ul) containing ^3H-SAM and peptide was added to initiate the reaction (final volume=51 ul). The final concentrations of the components were as follows: CARM1 was 0.25 nM, ^3H-SAM was 30 nM, peptide was 250 nM, SAH in the minimum signal control wells was 1 mM, and the DMSO concentration was 2%. The assays were stopped by the addition of non-radiolabeled SAM (10 ul) to a final concentration of 300 uM, which dilutes the ^3H-SAM to a level where its incorporation into the peptide substrate is no longer detectable. 50 ul of the reaction in the 384-well polypropylene plate was then transferred to a 384-well Flashplate and the biotinylated peptides were allowed to bind to the streptavidin surface for at least 1 hour before being washed once with 0.1% Tween20 in a Biotek ELx405 plate washer. The plates were then read in a PerkinElmer TopCount plate reader to measure the quantity of ^3H-labeled peptide bound to the Flashplate surface, measured as disintegrations per minute (dpm) or alternatively, referred to as counts per minute (cpm).
where dpm=disintegrations per minute, cmpd=signal in assay well, and min and max are the respective minimum and maximum signal controls.
where top and bottom are the normally allowed to float, but may be fixed at 100 or 0 respectively in a 3-parameter fit. The Hill Coefficient normally allowed to float but may also be fixed at 1 in a 3-parameter fit. Y is the % inhibition and X is the compound concentration.
With `CNCC(O)COc1cccc(-c2nc(-c3ccncc3)cc(N(C)C3CCOCC3)n2)c1` (stereo not shown) [Example 1-1], the IC50 was less than 100 nM.
Next, `CNCC(O)COc1cccc(-c2nc(-c3c(C)noc3C)cc(N(C)C3CCOCC3)n2)c1` (stereo not shown) [Example 1-1a]: less than 100 nM; `CNCC(O)COc1cccc(-c2nc(NC3CNC3)c(C)c(-c3c(C)noc3C)n2)c1` (stereo not shown) [Example 1-3]: less than 100 nM; `CNCC(O)COc1cccc(-c2cc(N(C)C3CCOCC3)nc(-c3ccncc3)n2)c1` (stereo not shown) [Example 2-1]: less than 100 nM.
Turning to `CCc1nc(-c2cccc(OCC(O)CNC)c2)cc(N(C)C2CCOCC2)n1` (stereo not shown) [Example 2-2], the IC50 was less than 100 nM.
Take `CNCC(O)COc1ccc(Cl)c(-c2nc(NC[C@H]3COCCN3C3COC3)c(C)c(-c3c(C)noc3C)n2)c1` (stereo partly shown) [Example 2-3]: the IC50 is less than 100 nM.
With `CNCC(O)COc1cccc(-c2nc(N[C@@H]3CCOC3)c(C)c(N3CCOCC3)n2)c1` (stereo partly shown) [Example 3-1] the figure was less than 100 nM; with `CNCC(O)COc1cccc(-c2nc(-c3c(C)noc3C)cc(-c3c(C)noc3C)n2)c1` (stereo not shown) [Example 3-1a], less than 100 nM.
Next, `CNCC(O)COc1cccc(-c2nc(NC3CC(F)C3)c(C)c(-c3c(C)noc3C)n2)c1` (stereo not shown) [Example 3-3]: less than 100 nM; `CNCC(O)COc1cccc(-c2nccc(NC3CCOCC3)n2)c1` (stereo not shown) [Example 4-1]: greater than 10000 nM; `CNCC(O)COc1cc(Cl)cc(-c2nc(-c3c(C)noc3C)cc(-c3c(C)noc3C)n2)c1` (stereo not shown) [Example 4-1a]: less than 100 nM.
For the molecule `CNCC(O)COc1cccc(-c2cc(N(C)C3CCOCC3)nc(C3CC3)n2)c1` (stereo not shown) [Example 4-2], the IC50 is less than 100 nM.
Next, `CNCC(O)COc1ccc(Cl)c(-c2nc(N[C@H]3CCN(C(=O)OC)C[C@H]3F)c(C)c(-c3c(C)noc3C)n2)c1` (stereo partly shown) [Example 4-3]: less than 100 nM; `CNCC(O)COc1cccc(-c2nc(-c3c(C)noc3C)cc(N(C)CCC#N)n2)c1` (stereo not shown) [Example 5-1a]: less than 100 nM.
For `C=C(C)c1nc(-c2cccc(OCC(O)CNC)c2)cc(N(C)C2CCOCC2)n1` (stereo not shown) [Example 5-2], the IC50 is less than 100 nM.
With `CNCC(O)COc1cccc(-c2nc(NC3(CO)CC3)c(C)c(-c3c(C)noc3C)n2)c1` (stereo not shown) [Example 5-3] the figure was less than 100 nM.
With `CNCC(O)COc1cccc(-c2nc(NC3CCOCC3)c(C)c(-c3c(C)noc3C)n2)c1` (stereo not shown) [Example 6-1a] the figure was less than 100 nM.
Next, `CNCC(O)COc1cccc(-c2cc(N(C)C3CCOCC3)nc(C(C)C)n2)c1` (stereo not shown) [Example 6-2]: less than 100 nM.
For `CNCC(O)COc1ccc(Cl)c(-c2nc(NC[C@H]3CCCO3)c(C)c(-c3c(C)noc3C)n2)c1` (stereo partly shown) [Example 6-3], the half-maximal inhibitory concentration (IC50) is less than 100 nM.
Next, `CNCC(O)COc1cc(Cl)cc(-c2nc(NC3CCOCC3)cc(-c3c(C)noc3C)n2)c1` (stereo not shown) [Example 7-1a]: less than 100 nM; `CNCC(O)COc1ccc(Cl)c(-c2nc(NC[C@@H]3CCCO3)c(C)c(-c3c(C)noc3C)n2)c1` (stereo partly shown) [Example 7-3]: less than 100 nM.
Turning to `CNCC(O)COc1cccc(-c2nc(-c3cncnc3)cc(-c3c(C)noc3C)n2)c1` (stereo not shown) [Example 8-1a], the IC50 was less than 100 nM.
With `CNCC(O)COc1cccc(-c2cc(N(C)C3CCOCC3)nc(N(C)C)n2)c1` (stereo not shown) [Example 8-2] the figure was less than 100 nM; with `CNCC(O)COc1cccc(-c2nc(NC3(C(F)(F)F)CC3)c(C)c(-c3c(C)noc3C)n2)c1` (stereo not shown) [Example 8-3], less than 100 nM; with `CNCC(O)COc1cccc(-c2nc(C3=CCCC3)cc(N(C)CCC#N)n2)c1` (stereo not shown) [Example 9-1], less than 100 nM.
Regarding `CNCC(O)COc1cc(Cl)cc(-c2nc(Nc3cncnc3)cc(-c3c(C)noc3C)n2)c1` (stereo not shown) [Example 9-1a], the IC50 is less than 100 nM.
With `CNCC(O)COc1ccc(Cl)c(-c2nc(NCC3CCOCC3)c(C)c(-c3c(C)noc3C)n2)c1` (stereo not shown) [Example 9-3] the figure was less than 100 nM.
Consider `CNCC(O)COc1cccc(-c2nc(C3CC3)cc(N(C)C3CCOCC3)n2)c1` (stereo not shown) [Example 10-1], for which the half-maximal inhibitory concentration (IC50) was less than 100 nM.

As a reminder, the IC50 is the concentration needed to halve the response being measured.
